Assay: Solubility of the tested additives into diesel fuel

## CCCCN(CCO)CCO [N-butyldiethanolamine]
Table 1
  Maximum evaluated concentration of marker soluble into diesel fuel: <100 ppm
Table 2
  Maximum evaluated concentration of marker soluble into diesel fuel: <100 ppm

Source: US10175221B2, “Detection device to identify markers dissolved in a liquid by means of a measurement of resistivity variation, detection method and use of marker and detection device” (SICPA HOLDING SA, priority 2014, dated 2019)
